Data set [1] can be described thus: Compound remaining in mouse blood after 6 hrs. The following applies: read-out: Stability. The format is ADME, tissue-based.
The target in data set [2] is Neprilysin (Homo sapiens) (UniProt P08473). Briefly: Ratio Kcat to […] for neprilysin.
Data set [3] has as its target 72 kDa type IV collagenase (Homo sapiens) (UniProt P08253). Briefly: Ratio Kcat to Ki for MMP2.
Data set [4] has as its target Matrix metalloproteinase-9 (Homo sapiens) (UniProt P14780). Briefly: Ratio Kcat to Ki for MMP9.
Data set [5] in a line: Aqueous solubility at pH 7.4. The following applies: aqueous medium. The format is physicochemical.
In data set [6] the target is Matrix metalloproteinase-14 (Homo sapiens) (UniProt P50281). Briefly: Ratio Kcat to […] for MMP14.

In brackets after ≈: the same amount, converted by molar mass. Numbered stars: 1 amine (or outer) side, 2 acyl side, 3 side chain; on linkers, the order of the positions; unused ones are H or OH. Square brackets hold non-standard residues; d marks the D form. Peptide text beside a SMILES is read from it. * marks the point of attachment. Doxorubicin(3'-N) = COc1cccc2c1C(=O)c1c(O)c3c(c(O)c1C2=O)C[C@@](O)(C(=O)CO)C[C@@H]3O[C@H]1C[C@H](N*)[C@H](O)[C@H](C)O1; X6 = CN1CCN(CCCC(N[*:1])C(=O)[*:2])CC1; hTyr = N[C@@H](CCc1ccc(O)cc1)C(=O)O; X2 = O=C(C(CCc1ccncc1)N[*:1])[*:2]; hPhe = N[C@@H](CCc1ccccc1)C(=O)O; Bn = c1ccc(C*)cc1

Sequence of 72 kDa type IV collagenase (Homo sapiens) (P08253 110-660 limits assumed): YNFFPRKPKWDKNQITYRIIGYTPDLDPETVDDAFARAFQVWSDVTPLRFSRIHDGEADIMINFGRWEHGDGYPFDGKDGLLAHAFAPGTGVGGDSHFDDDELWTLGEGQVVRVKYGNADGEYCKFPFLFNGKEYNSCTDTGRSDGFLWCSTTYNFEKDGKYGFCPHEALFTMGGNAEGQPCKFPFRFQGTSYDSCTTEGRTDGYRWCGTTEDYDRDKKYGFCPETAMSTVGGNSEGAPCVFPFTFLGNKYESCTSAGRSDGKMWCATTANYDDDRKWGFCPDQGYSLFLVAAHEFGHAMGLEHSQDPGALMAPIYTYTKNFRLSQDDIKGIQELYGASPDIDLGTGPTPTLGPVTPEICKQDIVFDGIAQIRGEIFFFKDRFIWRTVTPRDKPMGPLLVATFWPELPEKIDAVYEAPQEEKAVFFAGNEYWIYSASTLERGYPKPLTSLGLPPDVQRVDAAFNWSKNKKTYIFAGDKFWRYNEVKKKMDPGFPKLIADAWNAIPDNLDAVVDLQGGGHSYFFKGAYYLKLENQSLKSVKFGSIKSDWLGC
Sequence of Neprilysin (Homo sapiens) (P08473 whole entry): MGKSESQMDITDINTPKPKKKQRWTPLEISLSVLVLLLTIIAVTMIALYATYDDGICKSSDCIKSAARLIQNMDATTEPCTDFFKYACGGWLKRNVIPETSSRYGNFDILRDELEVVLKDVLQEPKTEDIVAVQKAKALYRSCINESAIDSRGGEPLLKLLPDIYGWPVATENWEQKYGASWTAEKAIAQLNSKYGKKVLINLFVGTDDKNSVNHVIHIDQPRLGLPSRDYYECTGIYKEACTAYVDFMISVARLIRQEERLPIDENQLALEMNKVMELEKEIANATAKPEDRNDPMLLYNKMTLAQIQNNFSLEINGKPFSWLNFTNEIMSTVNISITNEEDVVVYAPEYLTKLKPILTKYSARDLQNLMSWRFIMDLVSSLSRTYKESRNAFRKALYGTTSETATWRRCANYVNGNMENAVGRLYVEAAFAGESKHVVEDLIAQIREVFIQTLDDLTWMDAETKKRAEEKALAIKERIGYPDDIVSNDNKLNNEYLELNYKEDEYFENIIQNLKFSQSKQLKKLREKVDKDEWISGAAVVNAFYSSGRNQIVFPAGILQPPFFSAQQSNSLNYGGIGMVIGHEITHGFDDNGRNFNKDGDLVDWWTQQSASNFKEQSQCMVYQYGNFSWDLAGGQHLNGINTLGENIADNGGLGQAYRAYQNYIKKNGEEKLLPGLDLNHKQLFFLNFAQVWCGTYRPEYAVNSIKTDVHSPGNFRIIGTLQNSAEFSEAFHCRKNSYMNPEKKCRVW
Sequence of Matrix metalloproteinase-9 (Homo sapiens) (P14780 whole entry): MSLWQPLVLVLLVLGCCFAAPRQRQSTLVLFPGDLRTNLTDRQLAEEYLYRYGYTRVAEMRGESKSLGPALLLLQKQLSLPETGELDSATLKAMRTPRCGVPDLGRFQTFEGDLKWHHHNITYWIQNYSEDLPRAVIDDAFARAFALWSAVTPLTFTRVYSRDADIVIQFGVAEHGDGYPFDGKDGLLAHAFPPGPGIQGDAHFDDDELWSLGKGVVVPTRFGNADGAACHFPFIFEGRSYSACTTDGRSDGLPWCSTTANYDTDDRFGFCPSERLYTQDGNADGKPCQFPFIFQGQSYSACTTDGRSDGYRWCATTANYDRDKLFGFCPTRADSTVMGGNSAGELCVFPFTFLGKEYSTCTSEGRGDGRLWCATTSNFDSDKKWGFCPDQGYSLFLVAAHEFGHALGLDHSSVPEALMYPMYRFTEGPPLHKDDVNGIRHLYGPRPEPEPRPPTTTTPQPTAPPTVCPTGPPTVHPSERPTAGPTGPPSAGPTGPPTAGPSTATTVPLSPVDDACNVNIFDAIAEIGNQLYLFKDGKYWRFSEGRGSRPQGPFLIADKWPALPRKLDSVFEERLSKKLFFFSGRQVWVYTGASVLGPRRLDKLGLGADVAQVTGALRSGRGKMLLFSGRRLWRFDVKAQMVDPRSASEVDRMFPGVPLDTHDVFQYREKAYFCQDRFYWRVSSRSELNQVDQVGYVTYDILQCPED

For orientation: solubility means the concentration that dissolves in the medium under given conditions. Higher therefore signals much dissolved substance. As to `COc1cccc2c1C(=O)c1c(O)c3c(c(O)c1C2=O)C[C@@](O)(C(=O)CO)C[C@@H]3O[C@H]1C[C@H](NC(=O)[C@H](CC(C)C)NC(=O)[C@H](Cc2ccc(O)cc2)NC(=O)[C@H](CSCc2ccccc2)NC(=O)CNC(=O)[C@H](CC(C)C)NC(=O)[C@@H]2CCCN2C(=O)[C@H](CCC(=O)O)NC(C)=O)[C@H](O)[C@H](C)O1` (Ac-EPLGC(Bn)YL-{Doxorubicin(3'-N)}), in data set [1], the remaining at 6 h was 90%. Besides, the Ratio was < 1 in data set [2], 40 in data set [3], 107 in data set [4] and 97 in data set [6]. In addition, the solubility in data set [5] was > 2200 µg/mL.

Turning to `COc1cccc2c1C(=O)c1c(O)c3c(c(O)c1C2=O)C[C@@](O)(C(=O)CO)C[C@@H]3O[C@H]1C[C@H](NC(=O)[C@H](CC(C)C)NC(=O)[C@H](CC(C)C)NC(=O)CNC(=O)[C@H](CC(C)C)NC(C)=O)[C@H](O)[C@H](C)O1` (Ac-LGLL-{Doxorubicin(3'-N)}), the Ratio was 5 in data set [2], < 1 in data set [3], < 1 in data set [4] and < 1 in data set [6].

Turning to `COc1cccc2c1C(=O)c1c(O)c3c(c(O)c1C2=O)C[C@@](O)(C(=O)CO)C[C@@H]3O[C@H]1C[C@H](NC(=O)[C@H](CC(C)C)NC(=O)[C@H](Cc2ccc(O)cc2)NC(=O)[C@H](CC(C)C)NC(=O)CNC(=O)[C@H](CC(C)C)NC(C)=O)[C@H](O)[C@H](C)O1` (Ac-LGLYL-{Doxorubicin(3'-N)}), the Ratio in data set [2] came to 8; in data set [3], 6; in data set [4], 1; in data set [6], 24.

For the compound `COc1cccc2c1C(=O)c1c(O)c3c(c(O)c1C2=O)C[C@@](O)(C(=O)CO)C[C@@H]3O[C@H]1C[C@H](NC(=O)[C@H](CC(C)C)NC(=O)CNC(=O)[C@H](CC(C)C)NC(=O)[C@@H]2CCCN2C(C)=O)[C@H](O)[C@H](C)O1` (Ac-PLGL-{Doxorubicin(3'-N)}), the Ratio in data set [3] and in data set [4] was < 1 each time.

Consider `COc1cccc2c1C(=O)c1c(O)c3c(c(O)c1C2=O)C[C@@](O)(C(=O)CO)C[C@@H]3O[C@H]1C[C@H](NC(=O)[C@H](CC(C)C)NC(=O)[C@H](CC(C)C)NC(=O)CNC(=O)[C@H](CC(C)C)NC(=O)[C@@H]2CCCN2C(C)=O)[C@H](O)[C@H](C)O1` (Ac-PLGLL-{Doxorubicin(3'-N)}), for which the Ratio is 22 in data set [2], 18 in data set [3], > 120 in data set [4] and 4 in data set [6].

On to `COc1cccc2c1C(=O)c1c(O)c3c(c(O)c1C2=O)C[C@@](O)(C(=O)CO)C[C@@H]3O[C@H]1C[C@H](NC(=O)[C@H](CC(C)C)NC(=O)[C@H](C)NC(=O)[C@H](Cc2ccc(O)cc2)NC(=O)[C@H](CC(C)C)NC(=O)CNC(=O)[C@H](CC(C)C)NC(=O)[C@@H]2CCCN2C(C)=O)[C@H](O)[C@H](C)O1` (Ac-PLGLYAL-{Doxorubicin(3'-N)}), for which the Ratio in data set [2], in data set [3], in data set [4] and in data set [6] was > 120 throughout.

In the case of `COc1cccc2c1C(=O)c1c(O)c3c(c(O)c1C2=O)C[C@@](O)(C(=O)CO)C[C@@H]3O[C@H]1C[C@H](NC(=O)[C@H](CC(C)C)NC(=O)[C@H](Cc2ccc(O)cc2)NC(=O)[C@H](CC(C)C)NC(=O)CNC(=O)[C@H](CC(C)C)NC(=O)[C@@H]2CCCN2C(C)=O)[C@H](O)[C@H](C)O1` (Ac-PLGLYL-{Doxorubicin(3'-N)}), the Ratio in data set [2] was 22; in data set [3] it was 88; in data set [4], 390; in data set [6], > 120.

Consider `COc1cccc2c1C(=O)c1c(O)c3c(c(O)c1C2=O)C[C@@](O)(C(=O)CO)C[C@@H]3O[C@H]1C[C@H](NC(=O)[C@H](CC(C)C)NC(=O)[C@H](Cc2ccc(O)cc2)NC(=O)[C@H](COCc2ccccc2)NC(=O)CNC(=O)[C@H](CC(C)C)NC(=O)[C@@H]2CCCN2C(C)=O)[C@H](O)[C@H](C)O1` (Ac-PLGS(Bn)YL-{Doxorubicin(3'-N)}), for which the Ratio in data set [2] was < 1; in data set [3], 7; in data set [4] it was 34; in data set [6], 25.

Turning to `COC[C@H](NC(=O)CNC(=O)[C@H](CC(C)C)NC(=O)[C@@H]1CCCN1C(C)=O)C(=O)N[C@@H](Cc1ccc(O)cc1)C(=O)N[C@@H](CC(C)C)C(=O)N[C@H]1C[C@H](O[C@H]2C[C@](O)(C(=O)CO)Cc3c(O)c4c(c(O)c32)C(=O)c2c(OC)cccc2C4=O)O[C@@H](C)[C@H]1O` (Ac-PLGS(Me)YL-{Doxorubicin(3'-N)}), the remaining at 6 h in data set [1] turned out to be 31%. The Ratio was determined as 2.1 in data set [2], 24 in data set [3], 79 in data set [4] and 69 in data set [6]. This compound had a solubility in data set [5] of 40 µg/mL (≈ 32.5 µM).

As to `COc1cccc2c1C(=O)c1c(O)c3c(c(O)c1C2=O)C[C@@](O)(C(=O)CO)C[C@@H]3O[C@H]1C[C@H](NC(=O)[C@H](CC(C)C)NC(=O)[C@H](Cc2ccc(O)cc2)NC(=O)C(CCc2ccncc2)NC(=O)CNC(=O)[C@H](CC(C)C)NC(=O)[C@@H]2CCCN2C(C)=O)[C@H](O)[C@H](C)O1` (stereo not given in full) (Ac-PLG[X2]YL-{Doxorubicin(3'-N)}), the remaining at 6 h in data set [1] is 59%. Also, the Ratio was < 1 in data set [2], 21 in data set [3], 43 in data set [4] and 58 in data set [6]. The compound also yielded a solubility in data set [5] of 380 µg/mL (≈ 294 µM).

Regarding `COc1cccc2c1C(=O)c1c(O)c3c(c(O)c1C2=O)C[C@@](O)(C(=O)CO)C[C@@H]3O[C@H]1C[C@H](NC(=O)[C@H](CC(C)C)NC(=O)[C@H](C)NC(=O)[C@H](CCc2ccccc2)NC(=O)CNC(=O)[C@H](CC(C)C)NC(=O)[C@@H]2CCCN2C(C)=O)[C@H](O)[C@H](C)O1` (Ac-PLG[hPhe]AL-{Doxorubicin(3'-N)}), the Ratio in data set [2] was 1; in data set [3], 11; in data set [4], < 1; in data set [6] it was 19.

Regarding `COc1cccc2c1C(=O)c1c(O)c3c(c(O)c1C2=O)C[C@@](O)(C(=O)CO)C[C@@H]3O[C@H]1C[C@H](NC(=O)[C@H](CC(C)C)NC(=O)C(CCCN2CCN(C)CC2)NC(=O)[C@H](CCc2ccccc2)NC(=O)CNC(=O)[C@H](CC(C)C)NC(=O)[C@@H]2CCCN2C(C)=O)[C@H](O)[C@H](C)O1` (stereo partly drawn) (Ac-PLG[hPhe][X6]L-{Doxorubicin(3'-N)}), the remaining at 6 h in data set [1] amounted to 100%. For the same compound, the Ratio in data set [2] was < 1; in data set [3], 55; in data set [4], 73; in data set [6], > 120. For the same compound, the concentration in solution in data set [5] (solubility) was 130 µg/mL (≈ 98.1 µM).

In the case of `COc1cccc2c1C(=O)c1c(O)c3c(c(O)c1C2=O)C[C@@](O)(C(=O)CO)C[C@@H]3O[C@H]1C[C@H](NC(=O)[C@H](CC(C)C)NC(=O)[C@H](CCc2ccc(O)cc2)NC(=O)[C@H](CCc2ccccc2)NC(=O)CNC(=O)[C@H](CC(C)C)NC(=O)[C@@H]2CCCN2C(C)=O)[C@H](O)[C@H](C)O1` (Ac-PLG[hPhe][hTyr]L-{Doxorubicin(3'-N)}), in data set [1], the remaining at 6 h is 13%. In addition, the Ratio is < 1 in data set [2], 116 in data set [3], > 120 in data set [4] and > 120 in data set [6]. Also, the concentration in solution in data set [5] (solubility) was 1 µg/mL (≈ 0.767 µM).

These data come from ChEMBL document CHEMBL1156831, “Discovery of matrix metalloproteases selective and activated peptide-doxorubicin prodrugs as anti-tumor agents” (Bioorg Med Chem Lett, 2010).
